From patent US6900019B1, “In-situ cell extraction and assay method” (Amersham Biosciences UK Limited, priority 1997, dated 2005)

Assays:
Mouse 3T3 cells = test: Intracellular prostaglandin E2 in A23187-stimulated mouse 3T3 cells (EIA); format: cell-based; conditions: 100 μM A23187, 5 minutes
Experimental: Mouse 3T3 cells were cultured in DMEM media containing 10% (v/v) foetal calf sera (FCS). For PGE2 assays, cells were seeded into standard 96-well tissue culture plates in 100 μl volumes (between 10^5-10^6 cells/ml). Cells were cultured overnight at 37° C. in a 95% air/5% CO2 atmosphere. At this stage a check was made to ensure cells remained viable with Trypan blue exclusion.
On day 2, working solutions of A23187 (1-100 μM final concentration) were prepared in DMEM media in order to stimulate the production of PGE2. Two controls were prepared (a DMSO and a culture media only control). Here cells were cultured in the absence of A23187. Test cell cultures were stimulated with the calcium ionophore A23187 for 5 minutes at room temperature. The culture supernatant was decanted, cells were washed with phosphate buffered saline and lysed with 100 μl/well 0.5% (w/v) DTAB prepared in assay buffer. A check for cell lysis was made with a second Trypan blue exclusion test.
Working PGE2 standards (2.5-320 pg/well) were prepared in polypropylene tubes with assay buffer containing 0.5% (w/v) DTAB. […] Non-specific binding was measured in the absence of PGE2 antisera. […] The optical densities were determined with a microtitre plate spectrophotometer set at 450 nm. Intracellular PGE2 levels were determined using log/linear analysis with reference to a standard curve. […]

[1] = system: Chinese hamster ovary (CHO) cells; test: "Total" cellular cAMP from forskolin-stimulated CHO cells; format: cell-based; conditions: 100 μM forskolin, 20 minutes
Experimental: Chinese hamster ovary (CHO) cells were cultured in HAM's media containing 10% (v/v) foetal calf serum (FCS). For cAMP assays, cells were seeded into clear-bottomed 96-well tissue-culture plates with opaque walls (tissue-culture grade; see materials) in HAM's media, (see experiment 5) at 40 μl/well (between 10^4 and 10^6 cells/well). Cells were cultured overnight at 37° C. in a 95% air/5% CO2 atmosphere. The next day, sequestration and lysis buffers (2.5% alpha-cyclodextrin, 1% and 10% DTAB in assay buffer) were prepared. Antisera (at 1/11000 dilution), tracer (10000-20000 cpm) and SPA beads (20 mg/ml) were reconstituted with assay buffer containing 2.5% (w/v) alpha-cyclodextrin. […]
DTAB (100 μl, 1% w/v in assay buffer) was added to the non-specific binding wells. […] Following incubation, the plate was transferred directly to a TopCount™ scintillation counter and radioactivity detected. Non-specific binding was determined in the absence of specific rabbit antisera. Cyclic AMP levels were determined using log/linear analysis with reference to the standard curve. […]
Chinese hamster ovary cells were seeded at a density of 100,000 cells per well and cultured overnight to confluence in Viewplates as described under the methods section. […] The cell culture supernatant was not removed before the cell lysis step. cAMP levels were measured with the SPA radioimmunoassay procedure.

ECV304 cells = test: Intracellular IL-6 from IL-1β stimulated ECV304 cells (ELISA); format: cell-based, human; conditions: 500 pg/ml IL-1β overnight
Experimental: ECV304 cells were cultured in M-199 media containing 10% (v/v) foetal calf sera (FCS). For IL-6 assays, cells were seeded into standard 96-well tissue culture plates in 100 μl volumes (between 10^5-10^6 cells/ml). Cells were cultured overnight at 37° C. in a 95% air/5% CO2 atmosphere. On day 2 working solutions of IL-1β (2-500 pg/ml; final concentration) were prepared in M-199 media in order to stimulate the production of IL-6. A culture media blank was prepared with cultured cells grown in the absence of IL-1β. Cells were again cultured overnight at 37° C. in a 95% air/5% CO2 atmosphere. On day 3, a 1% (wt) solution of DTAB was prepared in standard diluent. […]
Working standards (10.24400 pg/ml IL-6) were prepared in polypropylene tubes using assay buffer containing 1% (w/v) DTAB. […] Non-specific binding was measured in the absence of IL-6 (zero IL-6 standard). […] The optical density was determined with a microtitre plate spectrophotometer set at 450 nm. Interleukin-6 levels were determined using log/linear analysis with reference to a standard curve. […]
ECV304 cells were seeded at a density of 100,000 cells per well and cultured overnight to confluence in standard 96-well tissue culture plates as described under the methods section. […] Levels of IL-6 were measured in the samples with ELISA (the biotinylated antibody was prepared in the presence of 3% (w/v) alpha-cyclodextrin).

CNc1ccc2oc(C[C@H]3O[C@@]4(CC[C@H]3C)O[C@H]([C@H](C)C(=O)c3ccc[nH]3)[C@H](C)C[C@H]4C)nc2c1C(=O)O [A23187]
Intracellular PGE2 levels (Mouse 3T3 cells): over 400 pg/10^6 cells

C=C[C@@]1(C)CC(=O)[C@]2(O)[C@@]3(C)[C@@H](O)CCC(C)(C)[C@@H]3[C@H](O)[C@H](OC(C)=O)[C@@]2(C)O1 [forskolin, Forskolin]
Total cellular cAMP levels [1]: over 170 pmol/10^6 cells

IL-1β: Interleukin-1β (Amersham, ARM 17005), used to stimulate the production of IL-6
Intracellular IL-6 levels (ECV304 cells): over 400 pg/10^6 cells
